# Measured values: patent US11447531B2, “Cleavable peptides and insecticidal and nematicidal proteins comprising same” (Vestaron Corporation, priority 2016, dated 2022)
# Test system: insect and/or nematode protease (X condition)
# Test: Round 2 and spacer FRET cleavage, X (insect) cleavage condition
# Assay type: biochemical
# Conditions: Round 2 FRET, X-Y combinations
# Protocol: Round 2 data from FRET molecules that represented a subset of binary combinations based on the observed top hits in Round 1 provided a hierarchical ranking of the various binary combinations. Round 2 FRET molecules were synthesized, resuspended, and tested in cleavage enzyme assays as described above in Round 1. Many combinations of binary cleavable linking peptides were tested against LEP, COLEOP and SGF conditions.
# Data from the Round 2 FRET that exemplifies the combination of both X and Y cleavability in a binary or tertiary peptide are presented in Table 6.
# To screen for potential spacers, FRET peptides were ordered as the binary peptide ALKLFVZ1Z2 and varied amino acids in positions Z1 and Z2. Some of the amino acids were screened as individuals and some were screened as pools. The peptides were re-suspended using 50% acetonitrile in water at a concentration of 2 μM of each peptide. For the one containing more than one FRET peptide, they were re-suspended so that each peptide was as 2 μM (assuming an equal portion of each one). These were then re-suspended and screened as described above for Round 1. The data does confirm that some amino acids in the Z position are more favorable than others. […] The greater the value of the slope in Table 7 the greater the activity of the amino acid when part of a spacer. The column in Table 7 labeled “Slope” indicates the speed of cleavage of the Linker.
row,Substance,"% of Max Slope, X [%]"
1,LKLFVGS (cleavable linker),98
2,IFVALKGS (cleavable linker),69
3,LRLFVGS (cleavable linker),74
4,ALKLFVGS (cleavable linker),100
5,LFVRLRGS (cleavable linker),94
6,LFVALKGS (cleavable linker),92

# Target: T1, pepsin or simulated human gastric fluid (SGF) (Sus scrofa, UniProt P00791)
# T1 construct: purchased Sigma P6887
# T1 sequence (P00791 60-385): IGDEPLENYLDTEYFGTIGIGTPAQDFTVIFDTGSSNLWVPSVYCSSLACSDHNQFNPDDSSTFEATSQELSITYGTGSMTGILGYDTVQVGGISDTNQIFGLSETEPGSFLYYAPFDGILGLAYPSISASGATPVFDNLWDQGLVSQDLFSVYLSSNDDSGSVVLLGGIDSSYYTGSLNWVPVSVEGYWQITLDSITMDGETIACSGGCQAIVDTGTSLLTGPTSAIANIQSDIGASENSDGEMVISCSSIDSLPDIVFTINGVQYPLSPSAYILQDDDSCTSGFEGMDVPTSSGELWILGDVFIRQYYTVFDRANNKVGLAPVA
# Test: not given
# Assay type: biochemical
# Conditions: not given
Substance,% of Max Slope [%],"% of Max Slope, Y [%]",SGF cleavage (in words),cleavability by human gastrointestinal proteases
LYV,65,,,
FFV,84,,,
LKLFVGS (cleavable linker),,67,,
YYL,78,,,
IFVRLR (cleavable linker),,,rapid,
VLF,78,,,
YFI,78,,,
EFY,66,,,
ALF,78,,,
FFA,84,,,
ALY,78,,,
LLF,63,,,
EYF,66,,,
LYA,65,,,
IFVALKGS (cleavable linker),,88,,
AIF,78,,,
VYF,63,,,
VFF,63,,,
VLY,78,,,
YFL,78,,,
IFA,65,,,
IFV,65,,,
LRLFVGS (cleavable linker),,75,,
VFY,63,,,
ILY,63,,,
FYA,84,,,
DYF,66,,,

Substance,% of Max Slope [%],"% of Max Slope, Y [%]",SGF cleavage (in words),cleavability by human gastrointestinal proteases
FFL,78,,,
IIF,63,,,
DFY,66,,,
VIF,78,,,
LFV,65,,,
LFA,65,,,
FYL,78,,,
FYI,78,,,
FYV,84,,,
ALKLFVGS (cleavable linker),,88,,
DFF,66,,,
LYY,100,,,
YFA,84,,,
ILF,63,,,
EFF,66,,,
FFI,78,,,
LIY,63,,,
AYF,63,,,
LFVRLRGS (cleavable linker),,74,,
ALKLFV (cleavable linker),,,rapid,
YFV,84,,,
LYF,100,,,
AFF,63,,,
LIF,63,,,
AAPF [reference compound],,,,neither FRET nor protein showed any cleavability
LFVALKGS (cleavable linker),,76,,
AFY,63,,,

# Test system: CEW gut extract
# Test: not given
# Assay type: biochemical, Helicoverpa zea
# Conditions: not given
row,Substance,cleavage of linking peptide in CEW gut extract (His-tagged western blot)
1,"IGER (listed as Pisum sativum) [control peptide that is only cleaved in insects, reference compound]",only cleaves in the CEW gut extract
2,ALKLFVGS (cleavable linker),digestion and disappearance of the protein band
3,IFVRLRGS (cleavable linker),digestion and disappearance of the protein band

# Target: T2, pepsin from porcine gastric mucosa (Sus scrofa, UniProt P00791)
# T2 construct: from tissue; host or cells: porcine gastric mucosa
# T2 sequence (P00791 60-385): as above
# Test: not given
# Assay type: biochemical
# Conditions: not given
row,Substance,cleavage of linking peptide in SGF (His-tagged western blot)
1,"IGER (listed as Pisum sativum) [control peptide that is only cleaved in insects, reference compound]",retention of the intact protein band
2,ALKLFVGS (cleavable linker),digestion and disappearance of the protein band
3,IFVRLRGS (cleavable linker),digestion and disappearance of the protein band

# Test system: gut enzymes of Southern Corn Rootworm
# Test: FRET peptide cleavage by coleopteran gut enzymes (COLEOP)
# Conditions: COLEOP (X); pooled FRET screening Round 1; slope of fluorescence over 10 minutes, steepest slope = 100%; representative cleavable sequences
row,Substance,% of Max Slope [%]
1,LKN,100
2,IQR,56
3,NLK,74
4,AIK,70
5,RLR,83
6,LKQ,100
7,QLK,74
8,KIR,83
9,LQR,56
10,KIK,83
11,AIR,70
12,VLR,70
13,VIK,70
14,NLR,74
15,INK,56
16,NIK,74
17,IRS,68
18,IKS,68
19,QLR,74
20,KLR,83
21,RLK,83
22,INR,56

# Same assay, conditions: COLEOP (X); pooled FRET screening; failed cleavable sequences
row,Substance,% of Max Slope [%]
1,LKN,−2

# Same assay, conditions: insect (COLEOP) simulated gut environment
row,Substance,COLEOP cleavage (in words)
1,IFVRLR (cleavable linker),rapid
2,ALKLFV (cleavable linker),rapid

# Test system: gut enzymes of Corn Earworm
# Test: FRET peptide cleavage by lepidopteran gut enzymes (LEP)
# Assay type: biochemical, Helicoverpa zea
# Conditions: insect (LEP) simulated gut environment
# Text: Corn Earworm insects were obtained commercially from Benzon Research (Carlisle, Pa.) as eggs. Hatched larvae were raised on artificial diet until ⅘^th instar (20 mm long) before guts were isolated. Before gut extract, larvae were anesthetized using CO2. The larva was then pinned on the dissection plate at both the head and the tail. Using dissection scissors, the cuticle was nicked. The dissection scissors were then inserted into the nick and the […] along the insect. The cuticle was then carefully pulled back and pinned open to reveal the digestive track. Using DI water, the insect was thoroughly rinsed to remove hemolymph. The gut was then excised with tweezers and placed in a solution of 500 μL of 200 mM Tris-HCl pH 8.1 150 mM NaCl (assay buffer). The tube was pre-weighed and post-weighed to calculate the total amount of gut added. CEW gut was diluted to a stock concentration of 7 mg/ml (10×) in 200 mM Tris-HCl pH 8.1 150 mM NaCl. This was diluted fresh each plate by 20× with the assay buffer.
row,Substance,LEP cleavage (in words)
1,IFVRLR (cleavable linker),rapid
2,ALKLFV (cleavable linker),rapid

# Test system: gut extract isolated from Southern Corn Rootworm
# Test: not given
# Assay type: biochemical, Diabrotica undecimpunctata
# Conditions: not given
row,Substance,cleavage of linking peptide in SCR gut extract (His-tagged western blot)
1,"IGER (listed as Pisum sativum) [control peptide that is only cleaved in insects, reference compound]",retention of the intact protein band
2,ALKLFVGS (cleavable linker),digestion and disappearance of the protein band
3,IFVRLRGS (cleavable linker),digestion and disappearance of the protein band
